{"source": "patent US12180226B2", "about": "“Spirotricycle RIPK1 inhibitors and methods of uses thereof” (Merck Sharp & Dohme LLC, priority 2021, dated 2024)", "note": "Structures can show the parent of a compound that is named as a salt."}
{"biological_target": "RIPK1 (recombinant GST-RIPK1 kinase domain, residues 1-327) (Homo sapiens (Human), UniProt Q13546)", "sequence (Q13546 1-327)": "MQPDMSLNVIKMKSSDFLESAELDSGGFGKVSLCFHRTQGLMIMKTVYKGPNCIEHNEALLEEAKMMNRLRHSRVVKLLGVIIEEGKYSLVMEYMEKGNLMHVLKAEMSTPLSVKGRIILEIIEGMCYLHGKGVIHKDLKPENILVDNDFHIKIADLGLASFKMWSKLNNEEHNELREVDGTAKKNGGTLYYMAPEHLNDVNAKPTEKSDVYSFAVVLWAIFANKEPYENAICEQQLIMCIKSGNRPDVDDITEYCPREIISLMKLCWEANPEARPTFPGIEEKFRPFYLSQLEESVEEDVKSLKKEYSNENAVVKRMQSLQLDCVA", "experiment": "RIPK1-ADP-Glo Enzymatic Assay", "format": "biochemical", "settings": "ADP-Glo; 25 nM GST-RIPK1, 300 μM ATP; assay lower limit ~25 nM; read-out: RIPK1 V0 Ec50", "outline": "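GST-tagged kinase domain (residues 1-327, Sf21-expressed), 25 nM, pre-incubated 30 min with compound at ambient temperature, then reacted 150 min with 300 μM ATP and 3 μM dephosphorylated MBP in HEPES pH 7.3 buffer. ADP measured by ADP-Glo luminescence; EC50 from ten-point titration (top 100000 nM), four-parameter fit.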", "units": {"EC50": "nM"}}
{"smiles": "O=C1N2[C@@H](CC[C@H]2c2ccccc2F)OC12CN(S(=O)(=O)c1ccccc1)C2", "note": "[Example 8.5, (5′S,7a′R)-5′-(2-fluorophenyl)-1-(phenylsulfonyl)tetra-hydro-3′H-spiro[azetidine-3,2′-pyrrolo[2,1-b]oxazol]-3′-one]", "EC50": 429}
{"smiles": "O=C1N2[C@@H](CC[C@H]2c2cc(F)cc(F)c2)OC12CCN(c1ccnc3ccnn13)CC2", "note": "[Example 4.6, (5′S,7a′R)-5′-(3,5-difluorophenyl)-1-(pyrazolo[1,5-a]pyrimidin-7-yl)tetrahydro-3′H-spiro[piperidine-4,2′-pyrrolo[2,1-b] [1,3]oxazol]-3′-one]", "EC50": "< 25"}
{"smiles": "O=C1N2[C@@H](CC[C@H]2c2cc(F)cc(F)c2)OC12CCN(C(c1ccccc1)C(F)F)CC2", "note": "(stereo partly drawn) [Example 22.1, (5′S,7a′R)-1-(2,2-Difluoro-1-phenylethyl)-5′-(3,5-difluorophenyl)tetrahydro-3′H-spiro[piperidine-4,2′-pyrrolo[2,1-b]oxazol]-3′-one]", "EC50": 221}
{"smiles": "COC(=O)c1cnc(N2CCC3(CC2)O[C@@H]2CC[C@@H](c4ccccc4)N2C3=O)nc1", "note": "[Example 4.194, methyl 2-[(5′S,7a′R)-3′-oxo-5′-phenyltetrahydro-1H,3′H-spiro[piperidine-4,2′-pyrrolo[2,1-b] [1,3]oxazol]-1-yl]pyrimidine-5-carboxylate]", "EC50": 699}
{"smiles": "Cc1cc(N2CCC3(CC2)O[C@@H]2CC[C@@H](c4ccccc4)N2C3=O)cc(C#N)n1", "note": "[Example 4.16, 6-methyl-4-[(5′S,7a′R)-3′-oxo-5′-phenyltetrahydro-1H,3′H-spiro[piperidine-4,2′-pyrrolo[2,1-b] [1,3]oxazol]-1-yl]pyridine-2-carbonitrile]", "EC50": "< 25"}
{"smiles": "O=C(c1ccccc1Cl)N1CCC2(CC1)O[C@@H]1CC[C@@H](c3cc(F)cc(F)c3)N1C2=O", "note": "[Example 6.78, (5′S,7a′R)-1-(2-chloro-benzene-1-carbonyl)-5′-(3,5-difluorophen-yl)tetrahydro-3′H-spiro[piperidine-4,2′-pyrrolo[2,1-b][1,3]-oxazol]-3′-one]", "EC50": 36.9}
{"smiles": "O=C(c1noc2c1CCCC2)N1CCC2(CC1)O[C@@H]1CC[C@@H](c3cc(F)cc(F)c3)N1C2=O", "note": "[Example 6.17, (5′S,7a′R)-5′-(3,5-difluorophenyl)-1-(4,5,6,7-tetrahydro-1,2-benoxazole-3-carbonyl)tetrahydro-3′H-spiro[piperidine-4,2′-pyrrolo[2,1-b] [1,3]oxazol]-3′-one]", "EC50": 173}
{"smiles": "O=C1N2[C@@H](CC[C@H]2c2cc(F)cc(F)c2)OC12CCN(c1ncc(F)c3ncnn13)CC2", "note": "[Example 4.90, (5′S,7a′R)-5′-(3,5-difluorophenyl)-1-(8-fluoro-[1,2,4]triazolo [1,5-c]pyrimidin-5-yl)tetrahydro-3′H-spiro[piperidine-4,2′-pyrrolo[2,1-b]oxazol]-3′-one, TFA salt]", "EC50": 380}
{"smiles": "CC1CN(C(=O)c2ccccc2)CCC12O[C@@H]1CC[C@@H](c3cc(F)cc(F)c3)N1C2=O", "note": "(single isomer, unassigned) [Example 2.5, (3[S or R],4[R or S], 5′S,7a′R)-1-benzoyl-5′-(3,5-difluorophenyl)-3-methyltetrahydro-3′H-spiro[piperidine-4,2′-pyrrolo[2,1-b]oxazol]-3′-one]", "EC50": 40.7}
{"smiles": "Cc1ncc([C@@H]2CC[C@H]3OC4(CCN(c5ccc(C#N)c(C)n5)CC4)C(=O)N32)cc1F", "note": "[Example 4.46, 6-[(5′S,7a′R)-5′-(5-fluoro-6-methylpyridin-3-yl)-3′-oxotetrahydro-1H,3′H-spiro[piperidine-4,2′-pyrrolo[2,1-b] [1,3]oxazol]-1-yl]-2-methylpyridine-3-carbonitrile]", "EC50": 46.9}
{"smiles": "N#Cc1ccc(N2CCC3(CC2)O[C@@H]2CC[C@@H](c4ccccc4)N2C3=O)n2ncc(C#N)c12", "note": "[Example 4.178, 7-[(5′S,7a′R)-3′-oxo-5′-phenyltetrahydro-1H,3′H-spiro[piperidine-4,2′-pyrrolo[2,1-b] [1,3]oxazol]-1-yl]pyrazolo[1,5-a] pyridine-3,4-dicarbonitrile]", "EC50": "< 25"}
